These results are taken from patent publication US20250032525A1 (priority 2021, published 2025).

The test system of one data set is MES-SA/Dx5. The experiment in a line: In vitro cytotoxicity. The data set is classed as cell-based. To be noted: MES-SA/Dx5; read-out: IC50. The source says: (§1) Experiments were repeated at least 3 times.
A further data set relates to A431. The experiment in a line: In vitro cytotoxicity. The data set is classed as cell-based.
From the text: as §1

The next data set deals with A431-G2. The experiment in a line: In vitro cytotoxicity. The data set is classed as cell-based.
From the text: as §1

In another data set the test system is MES-SA. The experiment in a line: In vitro cytotoxicity. The data set is classed as cell-based. To be noted: read-out: IC50.
From the text: as §1

A further data set deals with P388. The experiment in a line: In vitro cytotoxicity. The format is cell-based.
From the text: as §1

The next data set concerns P388/ADR. The experiment in a line: In vitro cytotoxicity. The data set is classed as cell-based. To be noted: read-out: IC50.
From the text: as §1

Another data set concerns A431-B1. The experiment in a line: In vitro cytotoxicity. The data set is classed as cell-based.
From the text: as §1

Data set [1] has as its system Lewis Lung Carcinoma (LLC) tumor. The experiment in a line: Mouse Lewis lung carcinoma (LLC) model. The data set is classed as in vivo, C57BL/6 mice. To be noted: single intravenous dose; cisplatin 5 mg/kg, LiPyDau 1 mg/kg. The method, then: FIG. 6. Anti-tumor effect of LiPyDau and cisplatin in the mouse Lewis lung cancer (LLC) lung carcinoma model. C57BL/6 mice received sc. injection of 2×10^5 LLC cells in 100 μl PBS. When the tumors were palpable, mice were randomized to receive a single intravenous dose of cisplatin (5 mg/kg) or LiPyDau (1 mg/kg) as indicated by the arrow. Control mice were treated with saline.
Mouse melanoma (B16), lung (Lewis lung carcinoma, LLC) and breast (4T1-LUC) cancer cell lines were used to establish allograft tumors for drug testing. 5×10^5 B16 or 2×10^5 LLC cells were inoculated subcutaneously in 200 μl serum-free culture media. 4T1-LUC tumors were established by injecting 1×10^6 cells in 20 μl serum-free culture media through the nipple directly to the breast tissue of 8 weeks old BALB/c mice on day 0). […] For the B16, LLC and 4T1-LUC tumor models 4, 6 and 6 mice were treated with LiPyDau while 4, 3 and 6 animals were in the saline treated groups, respectively.

Another data set relates to SW-620. To be noted: SW-620, NCI-60 database, sulforhodamine B; read-out: Cytotoxic IC50; cited from earlier work.
In a further data set the test system is T-47D. To be noted: NCI-60 database, sulforhodamine B, read-out: Cytotoxic IC50; cited from earlier work.
The test system of another data set is CCRF-CEM. The note with it: NCI-60 database, sulforhodamine B, read-out: Cytotoxic IC50; cited from earlier work.
Another data set concerns RXF 393. The note with it: RXF 393, NCI-60 database, sulforhodamine B; read-out: Cytotoxic IC50; cited from earlier work.
A further data set deals with SK-MEL-28. The note with it: SK-MEL-28, NCI-60 database, sulforhodamine B; read-out: Cytotoxic IC50; cited from earlier work.
Another data set relates to HS 578T. The note with it: NCI-60 database, sulforhodamine B, read-out: Cytotoxic IC50; cited from earlier work.
The subject of the next data set is HCT-15. The note with it: HCT-15, NCI-60 database, sulforhodamine B; read-out: Cytotoxic IC50; cited from earlier work.
Another data set concerns OVCAR-5. The note with it: OVCAR-5, NCI-60 database, sulforhodamine B; read-out: Cytotoxic IC50; cited from earlier work.
For the next data set, the system named is A498. The note with it: A498, NCI-60 database, sulforhodamine B; read-out: Cytotoxic IC50; cited from earlier work.
In another data set the test system is KM12. To be noted: KM12, NCI-60 database, sulforhodamine B; read-out: Cytotoxic IC50; cited from earlier work.
A further data set deals with MALME-3M. To be noted: NCI-60 database, sulforhodamine B, read-out: Cytotoxic IC50; cited from earlier work.
The test system of a further data set is PANC-1. The note with it: PANC-1, from Varbanov et al. (2017), PrestoBlue; read-out: Cytotoxic IC50; cited from earlier work.
A further data set concerns DU-145. To be noted: DU-145, NCI-60 database, sulforhodamine B; read-out: Cytotoxic IC50; cited from earlier work.
The next data set has as its system OVCAR-8. The note with it: OVCAR-8, NCI-60 database, sulforhodamine B; read-out: Cytotoxic IC50; cited from earlier work.
The next data set concerns HOP-62. To be noted: HOP-62, NCI-60 database, sulforhodamine B; read-out: Cytotoxic IC50; cited from earlier work.
A further data set deals with CAKI-1. To be noted: CAKI-1, NCI-60 database, sulforhodamine B; read-out: Cytotoxic IC50; cited from earlier work.
The next data set deals with MDA-MB-231. The note with it: MDA-MB-231, NCI-60 database, sulforhodamine B; read-out: Cytotoxic IC50; cited from earlier work.
A further data set concerns UO-31. The note with it: UO-31, NCI-60 database, sulforhodamine B; read-out: Cytotoxic IC50; cited from earlier work.
In the next data set the test system is PC-3. To be noted: PC-3, NCI-60 database, sulforhodamine B; read-out: Cytotoxic IC50; cited from earlier work.
A further data set concerns EKVX. To be noted: NCI-60 database, sulforhodamine B, read-out: Cytotoxic IC50; cited from earlier work.
The next data set has as its system COLO 205. The note with it: COLO 205, NCI-60 database, sulforhodamine B; read-out: Cytotoxic IC50; cited from earlier work.
The next data set relates to MCF7. To be noted: MCF7, NCI-60 database, sulforhodamine B; read-out: Cytotoxic IC50; cited from earlier work.
For another data set, the system named is HL-60(TB). The note with it: NCI-60 database, sulforhodamine B, read-out: Cytotoxic IC50; cited from earlier work.
The next data set concerns NCI/ADR-RES. The note with it: NCI-60 database, sulforhodamine B, read-out: Cytotoxic IC50; cited from earlier work.
The test system of a further data set is OVCAR-3. To be noted: OVCAR-3, NCI-60 database, sulforhodamine B; read-out: Cytotoxic IC50; cited from earlier work.
Another data set relates to BT-549. To be noted: BT-549, NCI-60 database, sulforhodamine B; read-out: Cytotoxic IC50; cited from earlier work.
The subject of another data set is NCI-60 cell lines. The experiment in a line: NCI DTP NCI-60 cell line screen database (sulforhodamine B), panel. The data set is classed as cell-based. The note with it: Homo sapiens.
The next data set deals with HCT-116. The note with it: HCT-116, NCI-60 database, sulforhodamine B; read-out: Cytotoxic IC50; cited from earlier work.
A further data set has as its system SK-MEL-2. To be noted: SK-MEL-2, NCI-60 database, sulforhodamine B; read-out: Cytotoxic IC50; cited from earlier work.
A further data set deals with HCC-2998. To be noted: HCC-2998, NCI-60 database, sulforhodamine B; read-out: Cytotoxic IC50; cited from earlier work.
In the next data set the test system is MDA-MB-435. To be noted: MDA-MB-435, NCI-60 database, sulforhodamine B; read-out: Cytotoxic IC50; cited from earlier work.
The next data set relates to NCI-H226. To be noted: NCI-H226, NCI-60 database, sulforhodamine B; read-out: Cytotoxic IC50; cited from earlier work.
Another data set has as its system HT29. The note with it: HT29, NCI-60 database, sulforhodamine B; read-out: Cytotoxic IC50; cited from earlier work.
For data set [2] the following is noted: Nagy et al.; cited from earlier work.
The subject of data set [3] is Dunning R-3327-H prostate carcinoma. To be noted: cited from earlier work.
For data set [4], the system named is nitrosamine-induced pancreatic cancers. To be noted: intraperitoneal, total dose of 100 nmol/kg; cited from earlier work.
The subject of data set [5] is patient-derived lung adenocarcinoma xenografts. Briefly: Patient-derived xenograft (PDX) model. The note with it: single treatment; LiPyDau 0.5 mg/kg, DOX 2 mg/kg, paclitaxel 12 mg/kg; 7 days. The data set is classed as in vivo, NSG mice. A general note: In xenograft studies the graft and the host belong to different species.
From the text: A piece from the tumor tissue was transplanted subcutaneously into the right flank and propagated in NOD.Cg-Prkdc^scid Il2rg^tm1Wjl/SzJ (NSG) mice for 7 months. After the xenografted tumor reached 1000 mm^3, tumor pieces were retransplanted subcutaneously into the right flank of 20 additional NSG mice, which were given a single treatment with various chemotherapeutics or LiPyDau. Every treatment group consists of 5 animals. After daily monitoring of the tumor volume for one week, the mice were sacrificed and the cytotoxicity of the treatments was investigated on tissue slices by image analysis.
For treatment, tumor pieces were engrafted subcutaneously.

SMILES strings stand for the structures. pIC50: −log10 of the molar value. Read-outs that look alike come from different tables or passages of the source.

As to `N.N.[Cl][Pt][Cl]` [Cisplatin, cisplatin], the pIC50 in the data set on MES-SA/Dx5 was 4.90; with A431, 5.41; in the data set with A431-G2, 5.71; in the data set with MES-SA it was 5.12; in the data set with P388, 6.21; in the data set on P388/ADR, 5.93. Moreover, the pIC50 in the data set on A431-B1 is 5.40. In addition, the Tumor growth entry in data set [1] is on record as “did not have any measurable effect on tumor growth”.

On to `COc1cccc2c1C(=O)c1c(O)c3c(c(O)c1C2=O)C[C@@](O)(C(C)=O)C[C@@H]3O[C@H]1C[C@H](N)[C@H](O)[C@H](C)O1` [Dau, daunorubicin], for which the pIC50 in the data set on SW-620 is 7.45; in the data set on T-47D it was 7.39; with CCRF-CEM, 7.64; with RXF 393 it was 7.03; in the data set with SK-MEL-28, 6.88; in the data set on HS 578T it was 6.92. Also, the pIC50 is 6.19 in the data set with HCT-15; 6.81 in the data set with OVCAR-5; 6.86 with A498; 7.02 in the data set with KM12; 7.30 in the data set with MALME-3M; 6.59 in the data set with PANC-1. For the same compound, the pIC50 was 7.12 with DU-145; 7.38 in the data set with OVCAR-8; 7.28 in the data set with HOP-62; 6.64 in the data set with CAKI-1; 6.70 with MDA-MB-231; 6.76 in the data set with UO-31. In addition, the pIC50 was 6.97 in the data set on PC-3; 6.44 with EKVX; 7.28 in the data set on COLO 205; 7.71 in the data set on MCF7; 7.51 in the data set on HL-60(TB); 5.91 in the data set with NCI/ADR-RES. For the same compound, the pIC50 is 6.90 in the data set with OVCAR-3; 6.82 in the data set with BT-549; 6.95 in the data set with NCI-60 cell lines (read-out: Cytotoxic IC50, av. breast); 6.84 in the data set on NCI-60 cell lines (read-out: Cytotoxic IC50, av. colorectal); 7.57 with NCI-60 cell lines (read-out: Cytotoxic IC50, av. leukaemia); 6.80 with NCI-60 cell lines (read-out: Cytotoxic IC50, av. lung). For the same compound, the pIC50 in the data set on NCI-60 cell lines (read-out: Cytotoxic IC50, av. melanoma) is 6.95; in the data set on NCI-60 cell lines (read-out: Cytotoxic IC50, av. ovarian) it was 6.41; in the data set on NCI-60 cell lines (read-out: Cytotoxic IC50, av. prostatic) it was 7.04; in the data set on NCI-60 cell lines (read-out: Cytotoxic IC50, av. renal), 6.80; with HCT-116, 7.54; with SK-MEL-2, 6.80. Also, the pIC50 was 7.00 with HCC-2998, 6.86 in the data set with MDA-MB-435, 7.33 in the data set on NCI-H226 and 7.29 with HT29.

Consider `COc1cccc2c1C(=O)c1c(O)c3c(c(O)c1C2=O)C[C@@](O)(C(=O)CO)C[C@@H]3O[C@H]1C[C@H](N2C=CCC2)[C@H](O)[C@H](C)O1` [PyDox, 2-pyrrolino-doxorubicin], for which the “Potency in vitro relative to Dox” value in data set [2] is listed as 500-1000 times. In data set [3] (3×25 nmol/kg, rats), the Animals that died is 6 of 10. The “Change in the number of mitotic or apoptotic cells” value in data set [3] (after treatment in rats) is listed as “no significant change in the number of mitotic or apoptotic cells”. Also, in data set [3] (dose of 50 nmol/kg, rats), the Mortality entry is “death of all rats”. The Hamsters that died in [4] is recorded as 16 of 18.

On to `CC(=O)O[C@H]1C(=O)[C@@]2(C)[C@H]([C@H](OC(=O)c3ccccc3)[C@]3(O)C[C@H](OC(=O)[C@H](O)[C@@H](NC(=O)c4ccccc4)c4ccccc4)C(C)=C1C3(C)C)[C@]1(OC(C)=O)CO[C@@H]1C[C@@H]2O` [paclitaxel], for which the Tumor growth result in [5] is listed as “failed to exert any effect on tumor growth”.

The pIC50 is −log10 of the IC50, conventionally taken in molar units.
